Measured values taken from patent publication US9546383B2, “Human pluripotent embryonic stem cells produced by nuclear transfer using a somatic cell nucleus treated with HVJ-E extract and an oocyte from a donor cycle that produced 15 or fewer oocytes” (priority 2013, dated 2017).
Where a SMILES comes first, the peptide text is derived from it. [ ]: non-standard residue; d: D form. d(hArg(Et2)) = CCN=C(NCC)NCCCC[C@@H](N)C(=O)O; hArg(Et2) = CCN=C(NCC)NCCCC[C@H](N)C(=O)O; dPhe(4-Cl) = N[C@H](Cc1ccc(Cl)cc1)C(=O)O; d2Nal = N[C@H](Cc1ccc2ccccc2c1)C(=O)O; d3Pal = N[C@H](Cc1cccnc1)C(=O)O

Assays:
[1] = Ovarian stimulation of egg donors under different pituitary suppression regimens; format: in vivo, human; conditions: antagonist 6 cycles, agonist 4 cycles
Protocol: Optimal stimulation protocols giving the best chance of producing oocytes capable of producing NT-ESCs using SCNT were sought. The impact of GnRH agonists and antagonists used to suppress the pituitary function of egg donors were first assessed. Prior to stimulations, the anti-mullerian hormone (AMH) level and antral follicle counts (AFC) were measured for each individual egg donor (Table S3). Donors with higher AMH and AFC profiles are associated with high ovarian reserve and received the GnRH agonist Lupron® (4 cycles) while the remaining donors were provided with the GnRH antagonist (ganirelix, 6 cycles) (Table 3).
Ovarian stimulation protocols followed established clinical IVF guidelines as we described previously (Tachibana et al, 2013 supra). Briefly, a combination of recombinant follicle stimulating hormone (rFSH) and human menopausal gonadotropins (hMG) and either GnRH agonist (Lupron®, Tap Pharmaceutical Products, Lake Forest, Ill.) or antagonist (Ganirelix®, Merck & Co, Whitehouse Station, N.J.) were given. Human chorionic gonadotropin (hCG) was prescribed to trigger oocyte maturation. Self administration of injectable rFSH (sc, Follistim®, Merck & Co, Whitehouse Station, N.J.) commenced on cycle day 2 or 3 and continued for approximately 8-12 days. The starting gonadotropin dose was 75-125 IU/day and 1-2 A hMG (sc, Menopur®, Ferring Pharmaceuticals, Inc. Parsippany, N.J.); the dose was adjusted per individual response using an established step-down regimen until the day of hCG injection. Ovarian response and follicular growth were monitored by transvaginal ultrasound and measurements of serum estradiol levels. When two or more follicles reached >18 mm in diameter, subjects received hCG ([…], sc, Ovidrel®, EMDSerono, Rockland, Mass.) to trigger maturation. Thirty-six hours following hCG injection, subjects underwent oocyte retrieval via transvaginal follicular aspirations.

[2] = tested on: human SCNT embryos; assay: Human SCNT embryo development and NT-ESC derivation by GnRH agonist or antagonist treatment of oocyte donor; format: cell-based; conditions: oocytes from treated donors
Protocol: A retrospective analysis of ovarian stimulation procedures was conducted in order to determine the effect of the number of oocytes retrieved per cycle on human SCNT embryo development and NT-ESC derivation outcomes. Oocyte donation cycles were divided into three groups based on the range of collected mature MII oocytes—10 or fewer oocytes per cycle (5 donors), between 11 to 15 oocytes (2 donors) and more than 16 oocytes per cycle (3 donors). While survival after enucleation, fusion, pronuclear formation and cleavage of SCNT embryos were similar between these groups, more embryos derived from the donors producing ≧16 MII oocytes/cycle arrested after the 8-cell stage than the other two groups (FIG. 5A). In addition, the quality of SCNT blastocysts also negatively correlated with the number of collected oocytes per cycle. […] The peak estradiol (E2) level measured in blood of egg donors prior to hCG priming positively correlated with the subsequent yield of oocytes (FIG. 10). […]
Optimal stimulation protocols giving the best chance of producing oocytes capable of producing NT-ESCs using SCNT were sought. The impact of GnRH agonists and antagonists used to suppress the pituitary function of egg donors were first assessed. Prior to stimulations, the anti-mullerian hormone (AMH) level and antral follicle counts (AFC) were measured for each individual egg donor (Table S3). […]

[3] = tested on: human SCNT embryos; assay: Human SCNT with caffeine during enucleation and fusion: spindle formation and blastocyst development; format: cell-based
Protocol: As expected, somatic cell nuclei introduced into oocyte cytoplasts under these conditions efficiently formed spindle-like structures detectable under birefringence microscope (83.3%, 10/12) (FIG. 2D). […] Human SCNT blastocysts in this group contained visible, prominent ICMs similar to that observed for IVF embryos (FIG. 2E).
Enucleation of MII spindles were performed as described previously (Tachibana et al., 2013 supra). […] The droplet was covered with tissue culture oil and oocytes maintained at 37° C. for 10-15 min before spindle removal. The dish was then mounted on the stage of an inverted microscope (Olympus IX71®) equipped with a stage warmer (http://www.tokaihit.com) Narishige micromanipulators, Oosight™ Imaging System (www.cri-inc.com) and a laser objective (www.hamiltonthorne.com). An oocyte was positioned by a holding pipette so that the spindle was situated between the 2 o'clock and 4 o'clock position. The zona pellucida next to the spindle was drilled with a laser pulse and an enucleation pipette was inserted through the opening. A small amount of cytoplasm surrounded by plasma membrane and contacting spindle was aspirated into the pipette. Next, a disaggregated fibroblast was aspirated into a micropipette and briefly transferred to the drop containing HVJ-E extract (Ishihara Sangyo Kaisha Ltd). […]

[4] = tested on: Monkey SCNT embryo; assay: Monkey SCNT embryo development after treatment with trichostatin A (TSA); format: cell-based, rhesus macaque
Protocol: (§1) However, the quality of such blastocysts and their potential to give rise to stable ESCs remained unknown until this current disclosure. A total of 16 monkey SCNT blastocysts produced with TSA treatment were plated on mitotically inactivated mouse embryonic fibroblast (mEF) feeders. None of these blastocysts produced NT-ESC lines (Table 1). Lower TSA concentrations as well as shorter exposure times to TSA had no effect on monkey SCNT blastocyst development and ESC isolation.
(§2) Oocyte collections, SCNT, embryo culture and NT-ESC isolation procedures were performed as previously described (Byrne et al, 2007 supra; Sparman et al., 2009, supra; Sparman et al, 2010 supra).

[5] = tested on: monkey SCNT blastocysts; assay: Monkey NT-ESC isolation after treatment with TSA; format: cell-based, rhesus macaque
Protocol: as §1, §2

[6] = tested on: Monkey SCNT embryo; conditions: 37.5 nM TSA; from 4% without; cited from earlier work
[7] = TSA 10 nM, 12 h, 23 plated blastocysts

Compound: CCN=C(NCC)NCCCC[C@H](NC(=O)[C@H](CC(C)C)NC(=O)[C@@H](CCCCNC(=NCC)NCC)NC(=O)[C@H](Cc1ccc(O)cc1)NC(=O)[C@H](CO)NC(=O)[C@@H](Cc1cccnc1)NC(=O)[C@@H](Cc1ccc(Cl)cc1)NC(=O)[C@@H](Cc1ccc2ccccc2c1)NC(C)=O)C(=O)N1CCC[C@H]1C(=O)N[C@H](C)C(N)=O [GnRH antagonist, ganirelix] (Ac-[d2Nal][dPhe(4-Cl)][d3Pal]SY[d(hArg(Et2))]L[hArg(Et2)]P[dA]-NH2)
- # oocytes (MII oocytes collected per cycle, mean±SD) [1]: 11.7±5.6
- Peak E2 [1]: 2568.2 ± 806.1
- NT-ESC lines derived [2]: six

Compound: Cn1c(=O)c2c(ncn2C)n(C)c1=O [caffeine]
- blastocyst development of caffeine treated embryos ([3]; 1.25 mM caffeine during enucleation and fusion): 23.5%
- somatic cell nuclei forming spindle-like structures ([3]; 1.25 mM caffeine during enucleation and somatic cell fusion, 10/12): 83.3%

Compound: CCNC(=O)[C@@H]1CCCN1C(=O)[C@H](CCCNC(=N)N)NC(=O)[C@H](CC(C)C)NC(=O)[C@@H](CC(C)C)NC(=O)[C@H](Cc1ccc(O)cc1)NC(=O)[C@H](CO)NC(=O)[C@H](Cc1c[nH]c2ccccc12)NC(=O)[C@H](Cc1c[nH]cn1)NC(=O)[C@@H]1CCC(=O)N1 [GnRH agonist]
- Peak E2 [1]: 2709 ± 1597.3
- SCNT embryo development beyond the 8-cell stage [2]: impaired

Compound: CC(/C=C/C(=O)NO)=C\[C@@H](C)C(=O)c1ccc(N(C)C)cc1 [TSA, trichostatin A]
- 8-cell (%) ([4]; TSA 5 nM for 12 h, N 212): (92.8) %
- 8-cell, number ([4]; TSA 5 nM for 12 h, N 212): 192
- Blastocysts (%) ([4]; TSA 5 nM for 12 h, N 212): 14.5%
- Blastocysts, number ([4]; TSA 5 nM for 12 h, N 212): 30
- CM (%) ([4]; TSA 5 nM for 12 h, N 212): (26.0) %
- CM, number ([4]; TSA 5 nM for 12 h, N 212): 58
- PN (%) ([4]; TSA 5 nM for 12 h, N 212): (98.6) %
- PN, number ([4]; TSA 5 nM for 12 h, N 212): 207
- fused (%) ([4]; TSA 5 nM for 12 h, N 212): (99.1) %
- fused, number ([4]; TSA 5 nM for 12 h, N 212): 210
- 8-cell (%) ([4]; TSA 10 nM for 12 h, N 571): (93.7) %
- 8-cell, number ([4]; TSA 10 nM for 12 h, N 571): 494
- Blastocysts (%) ([4]; TSA 10 nM for 12 h, N 571): 18.8%
- Blastocysts, number ([4]; TSA 10 nM for 12 h, N 571): 99
- CM (%) ([4]; TSA 10 nM for 12 h, N 571): (27.9) %
- CM, number ([4]; TSA 10 nM for 12 h, N 571): 147
- PN (%) ([4]; TSA 10 nM for 12 h, N 571): (94.4) %
- PN, number ([4]; TSA 10 nM for 12 h, N 571): 535
- fused (%) ([4]; TSA 10 nM for 12 h, N 571): (99.3) %
- fused, number ([4]; TSA 10 nM for 12 h, N 571): 567
- 8-cell (%) ([4]; TSA 10 nM for 24 h, N 108): (97.1) %
- 8-cell, number ([4]; TSA 10 nM for 24 h, N 108): 100
- Blastocysts (%) ([4]; TSA 10 nM for 24 h, N 108): 24.3%
- Blastocysts, number ([4]; TSA 10 nM for 24 h, N 108): 25
- CM (%) ([4]; TSA 10 nM for 24 h, N 108): (32.0) %
- CM, number ([4]; TSA 10 nM for 24 h, N 108): 33
- PN (%) ([4]; TSA 10 nM for 24 h, N 108): (100) %
- PN, number ([4]; TSA 10 nM for 24 h, N 108): 104
- fused (%) ([4]; TSA 10 nM for 24 h, N 108): (95.4) %
- fused, number ([4]; TSA 10 nM for 24 h, N 108): 104
- 8-cell (%) ([4]; TSA 37.5 nM for 24 h, N 511): (90.3) %
- 8-cell, number ([4]; TSA 37.5 nM for 24 h, N 511): 418
- Blastocysts (%) ([4]; TSA 37.5 nM for 24 h, N 511): 18.4%
- Blastocysts, number ([4]; TSA 37.5 nM for 24 h, N 511): 85
- CM (%) ([4]; TSA 37.5 nM for 24 h, N 511): (23.1) %
- CM, number ([4]; TSA 37.5 nM for 24 h, N 511): 107
- PN (%) ([4]; TSA 37.5 nM for 24 h, N 511): (99.0) %
- PN, number ([4]; TSA 37.5 nM for 24 h, N 511): 498
- fused (%) ([4]; TSA 37.5 nM for 24 h, N 511): (98.4) %
- fused, number ([4]; TSA 37.5 nM for 24 h, N 511): 503
- effect on blastocyst rates ([4]; reducing TSA concentration to 10 nM or shortening exposure from 24 h to 12 h): did not affect blastocyst rates
- # NT-ESCs ([5]; TSA 5 nM, 12 h, 7 plated blastocysts): 0
- # NT-ESCs [5, 7]: 3
- # NT-ESCs (%) [5, 7]: 13%
- # NT-ESCs ([5]; TSA 10 nM, 24 h, 4 plated blastocysts): 0
- development of monkey SCNT embryos to blastocysts [6]: 18%
